Values of other authors as cited in US20140010884A1, “DERMATOLOGICAL COMPOSITIONS COMPRISING RETINOIDS, DISPERSED BENZOYL PEROXIDE AND CARRAGEENANS” (GALDERMA RESEARCH & DEVELOPMENT, priority 2008, published 2014).
Where two headings read alike, the source gives them in different places. Blank lines part the entries; values can stand above or below the compound they belong to.

Columns and labels:
[1] = for decomposition time: 40° C.
[2] = in PEG 400 and ethanol

retinoid decomposing in presence of benzoyl peroxide (in 2 hours): 50% | retinoid decomposing in presence of benzoyl peroxide (in 24 hours): 95%
SMILES: CC1=C(/C=C/C(C)=C/C=C/C(C)=C/C(=O)O)C(C)(C)CCC1 [tretinoin]

decomposition of retinoid in presence of benzoyl peroxide (during 24 hours): no decomposition
SMILES: COc1ccc(-c2ccc3cc(C(=O)O)ccc3c2)cc1C12CC3CC(CC(C3)C1)C2 [adapalene, 6-[3-(1-adamantyl)-4-methoxyphenyl]-2-naphthoic acid]

SMILES: O=C(OOC(=O)c1ccccc1)c1ccccc1 [benzoyl peroxide]
decomposition time ([1]; in PEG 400 (0.5 mg/g)): 1.4 days | decomposition time ([1]; in ethanol): 29 days | decomposition time ([1]; in propylene glycol): 53 days | decomposition in suspension (dispersed form) ([1]; in water and propylene glycol, after storing for 90 days): not decomposed | solubility [2]: particularly soluble
